Experimental data published in patent US20260007601A1, “IONIZABLE CATIONIC LIPID COMPOUND AND COMPOSITION FOR DELIVERING NUCLEIC ACID AND USE THEREOF” (BEIJING YOUCAREKECHUANG PHARMACEUTICAL TECHNOLOGY CO., LTD., priority 2023, published 2026).
Where “and” joins values, the source holds several entries; their conditions need not be identical. Equal entries are not always repeated.

Legend:
[1] = Encapsulation rate, drug loading concentration and total RNA concentration detection (RiboGreen); assay type: physicochemical; settings: for Drug loading concentration / Encapsulation rate / Total RNA concentration: LNP formulation of the named lipid; for encapsulation rate higher than that of ALC-0315 / encapsulation rate higher than that of HHMA / encapsulation rate higher than that of SM-102 / encapsulation rate higher than that of YK-009 / encapsulation rate higher than that of compound 21 / encapsulation rate higher than that of compound 23: difference of rates
293T cells = experiment: Cell transfection experiment of LNP formulation of eGFP-mRNA (optimization of preparation conditions); assay type: cell-based; settings: 0.5% to 15% tested
Method: The cationic lipid compound YK-202 synthesized in Example 1, DSPC (AVT (Shanghai) Pharmaceutical Technology Co., Ltd.), cholesterol (AVT (Shanghai) Pharmaceutical Technology Co., Ltd.) and DMG-PEG2000 were dissolved in ethanol at a molar ratio of 49:10:39.5:1.5 to prepare an ethanol lipid solution. The ethanol lipid solution was quickly added to a citrate buffer (pH=4 to 5) by ethanol injection method and vortexed for 30 seconds for use. eGFP-mRNA was diluted in a citrate buffer (pH=4 to 5) to obtain an mRNA aqueous solution. […]
Plating: The cells in the culture dish were digested, counted, plated in a 96-well plate at 10,000 cells per well, or in a 12-well plate at 150,000 cells per well, and cultured overnight until the cells adhered to the wall.
Cell transfection experiment: The LNP formulation containing 1.5 μg of eGFP-mRNA prepared in Example 2 (the cationic lipid in the carrier was YK-202) and Lipofectamin 3000 formulation of eGFP-mRNA were added to the cell culture medium in a 12-well plate, and the cells were cultured for 24 hours. The transfection efficiency of different samples was investigated by fluorescence microscopy based on the fluorescence intensity.

Structure (SMILES)	drug loading concentration, times that of ALC-0315 [1] [times]	drug loading concentration, times that of HHMA [1] [times]	drug loading concentration, times that of SM-102 [1] [times]	drug loading concentration, times that of YK-009 [1] [times]	drug loading concentration, times that of compound 21 [1] [times]	drug loading concentration, times that of compound 23 [1]	total RNA concentration, times that of ALC-0315 [1] [times]	total RNA concentration, times that of HHMA [1] [times]	total RNA concentration, times that of SM-102 [1] [times]	total RNA concentration, times that of YK-009 [1] [times]	total RNA concentration, times that of compound 21 [1]	total RNA concentration, times that of compound 23 [1] [times]	Drug loading concentration [1] [µg/mL]	Encapsulation rate [1] [%]	Total RNA concentration [1] [µg/mL]	encapsulation rate higher than that of ALC-0315 [1] [%]	encapsulation rate higher than that of HHMA [1] [%]	encapsulation rate higher than that of SM-102 [1] [%]	encapsulation rate higher than that of YK-009 [1] [%]	encapsulation rate higher than that of compound 21 [1] [%]	also measured
CCCCCCCCCCCOC(=O)CCCCCN(CCCCCCCC(=O)OC(CCCCCCCC)CCCCCCCC)CCN(C)CCO [YK-201, heptadecan-9-yl-8-(2-((2-hydroxyethyl)(methylamino))ethyl)(6-oxo-6-((undecanyloxy)hexyl)amino)octanoate]	1.55	1.32	1.58	1.50	1.78	1.95 times	1.21	1.19	1.28	1.17	1.47 times and 1.5 times	1.39	40.32	89.5	45.07	26.70	29.00	27.20	26.50	31.70	encapsulation rate higher than that of compound 23 [1]: 34.30%
CCCCCCCCCCCOC(=O)CCCCCN(CCCCCCCC(=O)OCC(CCCCCCCC)CCCCCCCC)CCN(C)CCO [YK-202]	1.42	1.21	1.46	1.38	1.64	1.79 times	1.16	1.14	1.22	1.11	1.40 times	1.32	37.08	86.3	42.98	23.50	25.80	24.00	23.30	28.50	molar ratio of polymer-conjugated lipid DMG-PEG2000 to carrier with the highest transfection efficiency (293T cells): 1.5%; encapsulation rate higher than that of compound 23 [1]: 31.10%
CCCCCCCCC(CCCCCCCC)COC(=O)CCCCCN(CCCCCC(=O)OCC(CCCCCCCC)CCCCCCCC)CCN(C)CCO [YK-209, bis(2-octyldecyl)-6,6′-((2-(2-hydroxyethyl(methyl)amino)ethyl)azadialkyl)dihexanoate]	1.60	1.36	1.64	1.55	1.85	2.02 times and 2 times	1.17	1.15	1.23	1.12	1.41 times	1.34	41.76	96.2	43.42	33.40	35.70	33.90	33.20	38.40	encapsulation rate higher than that of compound 23 [1]: 41%
